Data reported in patent US20040053893A1, “Method of assaying iysophospholipase d activity” (priority 2000, published 2004).

Assays:
LPLD = assay: Substrate specificity of purified LPLD or recombinant LPLD (Table 1); format: biochemical
Text: The thus-obtained purified LPLD or recombinant LPLD has a substrate specificity as shown in, for example, Table 1.

[1] = target: T1, purified LPLD (bovine lysophospholipase D) (Bos taurus, UniProt A1A4K5); assay: LPLD activity assay using purified LPLD at various reaction pHs (Example 12); format: biochemical; details: purified LPLD of Example 9, 37° C., 405 nm (FIG. 5)
T1 construct: The starting material, FCS, and respective fractions obtained in the above-mentioned (1)-(7) were assayed for lysophospholipase D activity; from tissue; host or cells: fetal calf serum (FCS), chromatographic purification
Method: (2) Preparation of Reagents
Reagent C: 1-myristoyl-phosphatidyl-p-nitrophenol was dissolved in reagent B to correspond to 10 mmol/L and used as reagent C.
For assay, biochemical automatic analyzer (Toshiba Corporation: TBA-80FR NEO) was used. The purified LPLD (8 μL) obtained in Example 9 and reagent A (240 μL) were pre-warmed at 37° C. for about 15 min, and after addition of reagent C (80 μL), the absorbance at dominant wavelength 405 nm and sub wavelength of 505 nm was measured with lapse of time for about 15 min.

human serum albumin = human serum albumin (Homo sapiens, UniProt P02768); details: 5% human serum albumin, reagent B pH 7.6-8.6, 37° C. (FIG. 1)
Chain of human serum albumin (P02768 25-609): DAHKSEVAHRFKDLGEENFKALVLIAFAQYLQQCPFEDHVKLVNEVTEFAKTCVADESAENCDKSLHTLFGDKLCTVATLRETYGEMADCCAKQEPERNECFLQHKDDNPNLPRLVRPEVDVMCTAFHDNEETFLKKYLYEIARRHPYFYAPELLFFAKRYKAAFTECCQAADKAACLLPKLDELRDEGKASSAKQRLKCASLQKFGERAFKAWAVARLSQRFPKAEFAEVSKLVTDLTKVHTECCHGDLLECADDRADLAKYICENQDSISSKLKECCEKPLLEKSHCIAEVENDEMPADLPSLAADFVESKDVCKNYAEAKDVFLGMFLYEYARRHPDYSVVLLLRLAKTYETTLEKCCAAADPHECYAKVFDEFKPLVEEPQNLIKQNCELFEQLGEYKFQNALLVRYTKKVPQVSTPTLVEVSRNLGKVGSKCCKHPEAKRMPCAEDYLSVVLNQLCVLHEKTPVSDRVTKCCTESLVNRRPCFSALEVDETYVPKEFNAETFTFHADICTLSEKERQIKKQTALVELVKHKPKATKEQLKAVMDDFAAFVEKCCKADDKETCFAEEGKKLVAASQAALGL
Text: Reagent A: N-(2-hydroxyethyl)piperazine-N′-3-propanesulfonic acid (200 mmol/L), Triton X-100 (0.02%)
Reagent B: reagent A was separated and adjusted to pH 7.6, 7.8, 8.0, 8.2, 8.4 and 8.6, diluted 2-fold to give reagent B having various pHs.
citric acid monohydrate (10 mmol/L), Triton X-100 (0.01%), 1-hydroxy-2-linoleoyl-phosphatidyl-p-nitrophenol (Example 3; 10 mmol/L) prepared in the above-mentioned Example.
Two kinds of commercially available control serum, respective test sample 1 (CONSERA: Nissui Pharmaceutical Co.) and test sample 2 (Lipid Serum II: Eiken Chemical Co., Ltd.), and 5% human serum albumin (fatty acid free: Sigma) solution for determination of the activity of albumin fraction in the serum, were used.
Each sample (10 μL) and reagent B (150 μL) were dispensed to a microplate and the plate was incubated at 37° C. for about 5 min. Thereto was added reagent C (50 μL) and the absorbance at a dominant wavelength of 405 nm and sub wavelength of 540 nm was measured with the lapse of time. The LPLD activity was determined based on changes in absorbance per minute that depend on p-nitrophenol released by the action of LPLD. The activity is expressed by the amount of p-nitrophenol released in one minute per 1 mL of the reaction mixture.

LPLD in human serum = LPLD in human serum (Homo sapiens, UniProt Q13822); assay: LPLD activity assay with chromogenic substrates, human serum sample (Example 6); details: pH 8.0, 37° C., p-nitrophenol release at 405 nm, compared with 1-acyl-2-hydroxy substrates B and D (FIG. 2-1)
Method: 2-[4-(2-hydroxyethyl)-1-piperazinyl]ethanesulfonic acid (100 mmol/L), Triton X-100 (0.01%)
Using human serum as a sample, 5% human serum albumin (fatty acid free: Sigma) solution was used for determining the activity in albumin fraction in the serum, and a 5 U/mL solution of Streptomyces-derived PLD (product abbreviation PLDP: Asahi Chemical Industry Co., Ltd.) was used for determining the reactivity with phospholipase D (PLD).
Each sample (10 μL) and reagent A (150 μL) were dispensed to a microplate and the plate was incubated at 37° C. for about 5 min. Thereto was added reagent C (50 μL) and the absorbance at a dominant wavelength of 405 nm and sub wavelength of 540 nm was measured with the lapse of time. The LPLD activity was determined based on changes in absorbance per minute that depend on p-nitrophenol released by the action of LPLD. The activity is expressed by the amount of p-nitrophenol released in one minute per 1 mL of the reaction mixture.

[2] = target: T2, LPLD in control serum (CONSERA, Lipid Serum II) (Homo sapiens, UniProt Q13822); assay: LPLD activity assay at various reaction pHs, control sera (Example 5); format: biochemical; details: reagent B pH 7.6-8.6, 37° C. (FIG. 1)
T2 construct: Two kinds of commercially available control serum; purchased Nissui Pharmaceutical Co. (CONSERA); Eiken Chemical Co., Ltd. (Lipid Serum II); host or cells: commercial control serum
Text: (1) Preparation of Reagent

Row | Molecule | Reaction product (LPLD) | other results
1 | 1-alkenyl-2-hydroxy-glycerophosphocholine | 1-alkenyl-2-hydroxy-glycero-3- | 
2 | CCCCCCCCCCCCCC(=O)OCC(O)COP(=O)(O)Oc1ccc([N+](=O)[O-])cc1 (centres unmarked) [1-myristoyl-phosphatidyl-p-nitrophenol] |  | LPLD activity as a function of reaction pH [1]: stronger activity was found when pH was on the alkaline side
3 | CCCCCCCCCCCCC/C=C/[C@@H](O)[C@@H](N)COP(=O)([O-])OCC[N+](C)(C)C [lysosphingomyelin] | Sphingosine-1-phosphate, | 
4 | CCCCC/C=C\C/C=C\CCCCCCCC(=O)OC(CO)COP(=O)(O)Oc1ccc([N+](=O)[O-])cc1 (centres unmarked) [substrate A] |  | activity in a human serum albumin fraction as a function of reaction pH (human serum albumin): also increases; response to human serum (LPLD in human serum): higher; LPLD activity as a function of reaction pH [2]: potent when pH is on the alkaline side
5 | CCCCCCCC/C=C\CCCCCCCC(=O)OC(CO)COP(=O)(O)Oc1ccc([N+](=O)[O-])cc1 (centres unmarked) [substrate C] |  | response to human serum (LPLD in human serum): higher
6 | lysophosphatidylcholine | lysophosphatidic acid, choline | 
7 | lysophosphatidylethanolamine | lysophosphatidic acid, | 
8 | lysophosphatidylinositol | lysophosphatidic acid, | 
9 | lysophosphatidylserine | lysophosphatidic acid, serine | 
